Data: patent KR20210056931A, “피리메타민을 유효성분으로 포함하는 면역 관련 질환의 치료 또는 예방용 약학 조성물” (priority 2019, dated 2021)
“And” between values parts separate entries of the source, which are not always exact repeats. Equal values may be shown once.

Columns and labels:
TNF-α [1] = test: TNF-α expression inhibition in Raw264.7, comparison with DMARDs, Experiment 2-1; assay type: cell-based; conditions: 6 h pretreatment, LPS 10 ng/mL, MTX 344 nM, HCQ 610 nM, PYR 50 ng/mL, CsA 391 ng/mL, AZA 25 ng/mL, SFZ 750 ng/mL
[2] = system: rheumatoid arthritis model, DBA-1J Mice [류마티스 관절염 모델]; test: Arthritis score in rheumatoid arthritis animal model, Experiment 5; assay type: in vivo, mouse; conditions: G3: MTX 2 mg/kg/2day PO
[3] = system: rheumatoid arthritis model, DBA-1J Mice [류마티스 관절염 모델]; test: Paw edema in rheumatoid arthritis animal model, Experiment 5; assay type: in vivo, mouse; conditions: G3: MTX 2 mg/kg/2day PO
[4] = system: rheumatoid arthritis model, DBA-1J Mice [류마티스 관절염 모델]; test: Histopathological examination in rheumatoid arthritis animal model, Experiment 5; assay type: in vivo, mouse; conditions: Day 14; G3: MTX 2 mg/kg/2day PO
[5] = system: rheumatoid arthritis model, DBA-1J Mice [류마티스 관절염 모델]; test: Arthritis score in rheumatoid arthritis animal model, dose regimen study, Experiment 6; assay type: in vivo, mouse; conditions: HCQ 80 mg/kg/day QD PO, PG 25 mg/kg/day QD PO; for Arthritis score: MTX 2 mg/kg/2day PO, TFC 10 mg/kg/day BID PO (G3-G6); for Arthritis score (in words): TFC 10 mg/kg/day BID PO
[6] = system: rheumatoid arthritis model, DBA-1J Mice [류마티스 관절염 모델]; test: Paw edema in rheumatoid arthritis animal model, dose regimen study, Experiment 6; assay type: in vivo, mouse; conditions: Day 14, MTX 2 mg/kg/2day PO, HCQ 80 mg/kg/day QD PO, PG 25 mg/kg/day QD PO, TFC 10 mg/kg/day BID PO (G3-G6)
[7] = system: rheumatoid arthritis model, DBA-1J Mice [류마티스 관절염 모델]; test: Histopathological examination in rheumatoid arthritis animal model, dose regimen study, Experiment 6; assay type: in vivo, mouse; conditions: Day 14; MTX 2 mg/kg/2day PO, HCQ 80 mg/kg/day QD PO, PG 25 mg/kg/day QD PO, TFC 10 mg/kg/day BID PO (G3-G6)
[8] = Hematological examination, Experiment 6-4; assay type: in vivo, mouse
TNF-α [9] = test: Plasma TNF-α (ELISA), Experiment 6-5; assay type: in vivo, mouse; conditions: for Plasma TNF-α: Day 14, MTX 2 mg/kg/2day PO, HCQ 80 mg/kg/day QD PO, PG 25 mg/kg/day QD PO, TFC 10 mg/kg/day BID PO (G3-G6); for Plasma TNF-α (in words): HCQ, PG, TFC groups
TNF-α [10] = test: TNF-α expression inhibition in Raw264.7, comparison with tofacitinib, Experiment 2-2; assay type: cell-based; conditions: 6 h pretreatment, LPS 10 ng/mL 16 h
TNF-α [11] = test: TNF-α expression inhibition in Raw264.7, comparison with hydroxychloroquine and proguanil, Experiment 2-3; assay type: cell-based; conditions: for TNF-α expression: PY 0.2 uM, HCQ 0.61 uM, PG 5 uM, LPS 10 ng/mL, 24 h co-treatment
STAT3 = STAT3 activity (nuclear translocation) in Raw264.7, Experiment 3; assay type: cell-based; conditions: 50 ng/ml, 2 h pretreatment; LPS 100 ng/ml 16 h; Fig. 6
[12] = Day 14, G3: MTX 2 mpk qd PO, G12: Py 15 mpk qd PO

In the case of `O=C(O)c1cc(/N=N/c2ccc(S(=O)(=O)Nc3ccccn3)cc2)ccc1O` [SFZ, Sulfasalazine], the TNF-α expression (TNF-α [1]; 2hr) is reported as 280.7 pg/mL and the TNF-α expression (TNF-α [1]; 24hr) is reported as 3578.2 pg/mL.
In the case of `Cn1cnc([N+](=O)[O-])c1Sc1ncnc2nc[nH]c12` [AZA, Azathioprine], the TNF-α expression (TNF-α [1]; 2hr) is reported as 405.0 pg/mL and the TNF-α expression (TNF-α [1]; 24hr) is reported as 3539.9 pg/mL.
With `CN(Cc1cnc2nc(N)nc(N)c2n1)c1ccc(C(=O)N[C@@H](CCC(=O)O)C(=O)O)cc1` [메토트렉세이트, Methotrexate] the TNF-α expression (TNF-α [1]; 2hr) was 312.8 pg/mL, the TNF-α expression (TNF-α [1]; 24hr) was 3464.6 pg/mL and the Arthritis score ([2]; Day 0) was 2.3±1.6 Total score. The Arthritis score ([2]; Day 2) was 2.9±1.8 Total score, the Arthritis score ([2]; Day 4) was 4.6±2.9 Total score and the Arthritis score ([2]; Day 7) was 5.7±2.5 Total score. The Arthritis score ([2]; Day 9) was 6.0±2.4 Total score, the Arthritis score ([2]; Day 11) was 6.6±2.4 Total score and the Arthritis score ([2]; Day 14) was 6.9±2.5 Total score. The “Paw edema, LEFT” value ([3]; Day 0) was 0.10 ± 0.01 mL, the “Paw edema, RIGHT” value ([3]; Day 0) was 0.10 ± 0.01 mL and the “Paw edema, LEFT” value ([3]; Day 14) was 0.13 ± 0.04 mL. For the same compound, the “Paw edema, RIGHT” value ([3]; Day 14) was 0.16 ± 0.05 mL, the Bone destruction [4] was 1.3±1.6 and the Cartilage damage [4] was 1.0±1.4. For the same compound, the “Histopathological examination, total” value [4] was 3.6±4.5, the Synovium proliferation [4] was 1.3±1.6 and the Arthritis score ([5]; Day 0) was 2.5±1.0 total score. The Arthritis score ([5]; Day 2) was 3.7±1.6 total score, the Arthritis score ([5]; Day 5) was 5.0±2.4 total score and the Arthritis score ([5]; Day 7) was 6.0±2.9 total score. The Arthritis score ([5]; Day 9) was 6.3±2.9 total score, the Arthritis score ([5]; Day 12) was 7.2±2.7 total score and the Arthritis score ([5]; Day 14) was 7.8±3.4 total score. For the same compound, the “Paw edema, HL, mean” value [6] was 0.16 mL, the “Paw edema, HR, mean” value [6] was 0.16 mL and the “Paw edema, HL, individual animal” value ([6]; listed as MTX) was 0.19 mL and 0.16 mL and 0.15 mL and 0.17 mL and 0.18 mL and 0.11 mL. The “Paw edema, HR, individual animal” value ([6]; listed as MTX) was 0.17 mL and 0.14 mL and 0.19 mL and 0.20 mL and 0.13 mL and 0.11 mL, the Bone destruction [7] was 1.8±1.0 and the Cartilage damage [7] was 1.0±0.6. For the same compound, the “Histopathological examination, total” value [7] was 5.7±1.2, the Synovium proliferation [7] was 2.8±0.4 and the “%BASO” value [8, 12] was 0.6±0.3%. The “%EOS” value [8, 12] was 1.8±1.7%, the “%LUC” value [8, 12] was 2.8±1.2% and the “%LYM” value [8, 12] was 40.8±9.9%. For the same compound, the “%MONO” value [8, 12] was 4.2±1.5%, the “%NEUT” value [8, 12] was 49.8±11.7% and the “%RETIC” value [8, 12] was 0.63±1.16%. It also gave an HCT [8, 12] of 38.2±6.0%, an HDW [8, 12] of 2.15 ± 0.13 g/dL and an HGB [8, 12] of 10.9 ± 1.7 g/dL. For the same compound, the MCH [8, 12] was 12.8 ± 0.8 pg, the MCV [8, 12] was 44.8 ± 2.9 fL and the MPV [8, 12] was 7 ± 0.8 fL. The PLT [8, 12] was 440±386 10^3 cell/μL, the RDW [8, 12] was 23.4±3.7% and the WBC [8, 12] was 4.55±0.52 10^3 cell/μL. The “Hematotoxicity (in words)” value ([8]; G3 (MTX)) was “적혈구와 혈소판 수치가 감소하는 독성이 나타났다” and the “Plasma TNF-α” value (TNF-α [9]) was 769.1 pg/mL.
In the case of `C[C@@H]1CCN(C(=O)CC#N)C[C@@H]1N(C)c1ncnc2[nH]ccc12` [토파시티닙], the TNF-α expression (TNF-α [10]; TFN 100 nM) is reported as 535.7 pg/mL, the TNF-α expression (TNF-α [10]; TFN 200 nM) is reported as 538.5 pg/mL and the Arthritis score ([5]; Day 0) is reported as 2.5±1.0 total score. The Arthritis score ([5]; Day 2) was 4.5±1.4 total score, the Arthritis score ([5]; Day 5) was 6.5±2.5 total score and the Arthritis score ([5]; Day 7) was 8.7±2.3 total score. It also gave an Arthritis score ([5]; Day 9) of 9.0±2.5 total score, an Arthritis score ([5]; Day 12) of 10.3±2.6 total score and an Arthritis score ([5]; Day 14) of 11.3±3.3 total score. The “Arthritis score (in words)” value [5] was “관절염 지수가 개선되지 않았다”, the “Paw edema, HL, mean” value [6] was 0.15 mL and the “Paw edema, HR, mean” value [6] was 0.16 mL. For the same compound, the “Paw edema, HL, individual animal” value ([6]; listed as TFC) was 0.13 mL and 0.12 mL and 0.18 mL and 0.14 mL and 0.17 mL, the “Paw edema, HR, individual animal” value ([6]; listed as TFC) was 0.19 mL and 0.18 mL and 0.13 mL and 0.14 mL and 0.12 mL and the Bone destruction [7] was 2.5±0.5. The Cartilage damage [7] was 1.8±0.4, the “Histopathological examination, total” value [7] was 7.3±0.8 and the Synovium proliferation [7] was 3.0±0.0. The “Plasma TNF-α” value (TNF-α [9]) was 885.8 pg/mL and the “Plasma TNF-α (in words)” value (TNF-α [9]) was “혈장 TNF-α가 감소하지 않은”.
For `[H]/N=C(\N/C(=N/[H])Nc1ccc(Cl)cc1)NC(C)C` [프로구아닐], the TNF-α expression (TNF-α [11]) was 988.1, the TNF-α expression inhibition (TNF-α [11]; drug treatment 2 h or 24 h, pyrimethamine 0.2 μM, proguanil 5 μM) was “TNF-α의 발현량을 억제하지 못했고” and the Arthritis score ([5]; Day 0) was 2.5±1.0 total score. It also gave an Arthritis score ([5]; Day 2) of 4.5±1.0 total score, an Arthritis score ([5]; Day 5) of 6.7±1.2 total score and an Arthritis score ([5]; Day 7) of 8.3±1.5 total score. For the same compound, the Arthritis score ([5]; Day 9) was 9.5±2.2 total score, the Arthritis score ([5]; Day 12) was 10.2±1.6 total score and the Arthritis score ([5]; Day 14) was 11.2±1.2 total score. For the same compound, the “Arthritis score (in words)” value [5] was “관절염 지수가 개선되지 않았다”, the “Paw edema, HL, mean” value [6] was 0.15 mL and the “Paw edema, HR, mean” value [6] was 0.16 mL. The “Paw edema, HL, individual animal” value ([6]; listed as PG) was 0.13 mL and 0.14 mL and 0.16 mL and 0.15 mL and 0.17 mL and 0.12 mL, the “Paw edema, HR, individual animal” value ([6]; listed as PG) was 0.16 mL and 0.19 mL and 0.14 mL and 0.13 mL and the Bone destruction [7] was 2.7±0.8. The Cartilage damage [7] was 2.3±0.8, the “Histopathological examination, total” value [7] was 7.8±1.9 and the Synovium proliferation [7] was 2.8±0.4. The “Plasma TNF-α” value (TNF-α [9]) was 904.4 pg/mL and the “Plasma TNF-α (in words)” value (TNF-α [9]) was “혈장 TNF-α가 감소하지 않은”.
With `CCN(CCO)CCCC(C)Nc1ccnc2cc(Cl)ccc12` (centres unmarked) [히드록시클로로퀸, Hydroxychloroquine] the TNF-α expression (TNF-α [1]; 2hr) was 339.5 pg/mL, the TNF-α expression (TNF-α [1]; 24hr) was 3564.6 pg/mL and the TNF-α expression (TNF-α [11]) was 762.2. For the same compound, the STAT3 nuclear translocation (STAT3) was “LPS 16 시간 자극에 의한 STAT3의 핵이동을 억제함”, the Arthritis score ([5]; Day 0) was 2.5±1.2 total score and the Arthritis score ([5]; Day 2) was 4.0±0.6 total score. The Arthritis score ([5]; Day 5) was 6.5±0.8 total score, the Arthritis score ([5]; Day 7) was 9.3±2.0 total score and the Arthritis score ([5]; Day 9) was 10.3±2.1 total score. The Arthritis score ([5]; Day 12) was 11.3±2.5 total score, the Arthritis score ([5]; Day 14) was 12.0±2.8 total score and the “Arthritis score (in words)” value [5] was “관절염 지수가 개선되지 않았다”. For the same compound, the “Paw edema, HL, mean” value [6] was 0.17 mL, the “Paw edema, HR, mean” value [6] was 0.16 mL and the “Paw edema, HL, individual animal” value ([6]; listed as HCQ) was 0.17 mL and 0.13 mL and 0.19 mL and 0.15 mL and 0.16 mL. The “Paw edema, HR, individual animal” value ([6]; listed as HCQ) was 0.19 mL and 0.15 mL and 0.13 mL and 0.16 mL and 0.18 mL and 0.14 mL, the Bone destruction [7] was 2.7±0.5 and the Cartilage damage [7] was 2.0±1.1. The “Histopathological examination, total” value [7] was 7.7±1.5, the Synovium proliferation [7] was 3.0±0.0 and the “Plasma TNF-α” value (TNF-α [9]) was 839.5 pg/mL. The “Plasma TNF-α (in words)” value (TNF-α [9]) was “혈장 TNF-α가 감소하지 않은”.
